# According to PubChem BioAssay AID2060489 (Molecular Pharmacology Branch, DTP, NCI, 2025):
# Tested on: 922993-354-T-J3-PDC complex spheroids, viability
# Assay: Anticancer human tumor 922993-354-T-J3-PDC patient-derived endometrial carcinoma cell line growth inhibition [GQUAD]
# Settings: for IC50: curve of first compound; for viability, T/C: stronger effect = lower value
# Method in brief: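 Multi-cell-type spheroids of tumor cells with HUVEC and mesenchymal stem cells, treated with drug combinations. Concentrations descend in half-log steps from near clinical Cmax, or from 10 microM where Cmax is unknown; viability read-out.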
# [1] = second compound 0.0316 µM, first compound 0.0316 µM
# [2] = second compound 0.0316 µM, first compound 0.316 µM
# [3] = second compound 0.1 µM, first compound 0.0316 µM
# [4] = second compound 0.1 µM, first compound 0.316 µM
# [5] = second compound 0.316 µM, first compound 0.0316 µM
# [6] = second compound 0.316 µM, first compound 0.316 µM
# [7] = second compound 1 µM, first compound 0.0316 µM
# [8] = second compound 1 µM, first compound 0.316 µM
# [9] = second compound 3.16 µM, first compound 0.0316 µM
# [10] = second compound 3.16 µM, first compound 0.316 µM
# [11] = second compound 10 µM, first compound 0.0316 µM
# [12] = second compound 10 µM, first compound 0.316 µM
# [13] = second compound 0.0316 µM, first compound 0.1 µM
# [14] = second compound 0.0316 µM, first compound 1 µM
# [15] = second compound 0.0316 µM, first compound 3.16 µM
# [16] = second compound 0.0316 µM, first compound 10 µM
# [17] = second compound 0.1 µM, first compound 0.1 µM
# [18] = second compound 0.1 µM, first compound 1 µM
# [19] = second compound 0.1 µM, first compound 3.16 µM
# [20] = second compound 0.1 µM, first compound 10 µM
# [21] = second compound 0.316 µM, first compound 0.1 µM
# [22] = second compound 0.316 µM, first compound 1 µM
# [23] = second compound 0.316 µM, first compound 3.16 µM
# [24] = second compound 0.316 µM, first compound 10 µM
# [25] = second compound 1 µM, first compound 0.1 µM
# [26] = second compound 1 µM, first compound 1 µM
# [27] = second compound 1 µM, first compound 3.16 µM
# [28] = second compound 1 µM, first compound 10 µM
# [29] = second compound 3.16 µM, first compound 0.1 µM
# [30] = second compound 3.16 µM, first compound 1 µM
# [31] = second compound 3.16 µM, first compound 3.16 µM
# [32] = second compound 3.16 µM, first compound 10 µM
# [33] = second compound 10 µM, first compound 0.1 µM
# [34] = second compound 10 µM, first compound 1 µM
# [35] = second compound 10 µM, first compound 3.16 µM
# [36] = second compound 10 µM, first compound 10 µM
# 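Further: spheroids exposed to compounds for seven days.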
# 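Wherever viability, T/C is given: 100% = DMSO vehicle control viability.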
smiles,measurement,setting,value
Cc1[nH]c2ccccc2c1CCNCc1ccc(/C=C/C(=O)NO)cc1 + CN(C)c1ccc(Nc2c3ccc(NC(=O)CCN4CCCC4)cc3nc3cc(NC(=O)CCN4CCCC4)ccc23)cc1,IC50,second compound 0.0316 µM,> 316 nM
same,IC50,second compound 0.1 µM,> 316 nM
same,IC50,second compound 0.316 µM,> 316 nM
same,IC50,second compound 1 µM,> 316 nM
same,IC50,second compound 3.16 µM,> 316 nM
same,IC50,second compound 10 µM,> 316 nM
same,"viability, T/C","second compound 0.0316 µM, first compound 0.000999 µM",104%
same,"viability, T/C","second compound 0.0316 µM, first compound 0.00316 µM",78.9%
same,"viability, T/C","second compound 0.0316 µM, first compound 0.00999 µM",91.6%
same,"viability, T/C",[1],67.8%
same,"viability, T/C","second compound 0.0316 µM, first compound 0.0999 µM",56.4%
same,"viability, T/C",[2],62.5%
same,"viability, T/C","second compound 0.1 µM, first compound 0.000999 µM",73.2%
same,"viability, T/C","second compound 0.1 µM, first compound 0.00316 µM",85.3%
same,"viability, T/C","second compound 0.1 µM, first compound 0.00999 µM",94.2%
same,"viability, T/C",[3],86.2%
same,"viability, T/C","second compound 0.1 µM, first compound 0.0999 µM",78.1%
same,"viability, T/C",[4],53.1%
same,"viability, T/C","second compound 0.316 µM, first compound 0.000999 µM",94.5%
same,"viability, T/C","second compound 0.316 µM, first compound 0.00316 µM",94.4%
same,"viability, T/C","second compound 0.316 µM, first compound 0.00999 µM",89.1%
same,"viability, T/C",[5],93%
same,"viability, T/C","second compound 0.316 µM, first compound 0.0999 µM",73.1%
same,"viability, T/C",[6],61.7%
same,"viability, T/C","second compound 1 µM, first compound 0.000999 µM",70.3%
same,"viability, T/C","second compound 1 µM, first compound 0.00316 µM",95.9%
same,"viability, T/C","second compound 1 µM, first compound 0.00999 µM",101%
same,"viability, T/C",[7],76.1%
same,"viability, T/C","second compound 1 µM, first compound 0.0999 µM",97%
same,"viability, T/C",[8],59.5%
same,"viability, T/C","second compound 3.16 µM, first compound 0.000999 µM",101%
same,"viability, T/C","second compound 3.16 µM, first compound 0.00316 µM",81.4%
same,"viability, T/C","second compound 3.16 µM, first compound 0.00999 µM",94.8%
same,"viability, T/C",[9],82.3%
same,"viability, T/C","second compound 3.16 µM, first compound 0.0999 µM",78.7%
same,"viability, T/C",[10],57.4%
same,"viability, T/C","second compound 10 µM, first compound 0.000999 µM",121%
same,"viability, T/C","second compound 10 µM, first compound 0.00316 µM",118%
same,"viability, T/C","second compound 10 µM, first compound 0.00999 µM",106%
same,"viability, T/C",[11],112%
same,"viability, T/C","second compound 10 µM, first compound 0.0999 µM",110%
same,"viability, T/C",[12],61.3%
COc1cccc2c1C(=O)c1c(O)c3c(c(O)c1C2=O)CC(O)(C(=O)CO)CC3OC1CC(N)C(O)C(C)O1 (stereo unspecified) + Cc1cnc(CNC(=O)c2c(=O)c3ccc(N4CCCN(C)CC4)nc3n3c2sc2ccccc23)cn1,IC50,second compound 0.0316 µM,> 10000 nM
same,IC50,second compound 0.1 µM,3670 nM
same,IC50,second compound 0.316 µM,< 31.6 nM
same,IC50,second compound 1 µM,< 31.6 nM
same,IC50,second compound 3.16 µM,< 31.6 nM
same,IC50,second compound 10 µM,< 31.6 nM
same,"viability, T/C",[1],83.7%
same,"viability, T/C",[13],79.4%
same,"viability, T/C",[2],67.2%
same,"viability, T/C",[14],75.3%
same,"viability, T/C",[15],73.1%
same,"viability, T/C",[16],55%
same,"viability, T/C",[3],54.3%
same,"viability, T/C",[17],71.3%
same,"viability, T/C",[4],58.3%
same,"viability, T/C",[18],51.1%
same,"viability, T/C",[19],53.6%
same,"viability, T/C",[20],42%
same,"viability, T/C",[5],52.8%
same,"viability, T/C",[21],39.7%
same,"viability, T/C",[6],42.1%
same,"viability, T/C",[22],40.4%
same,"viability, T/C",[23],60.5%
same,"viability, T/C",[24],42.2%
same,"viability, T/C",[7],50.6%
same,"viability, T/C",[25],40.2%
same,"viability, T/C",[8],37.1%
same,"viability, T/C",[26],43.2%
same,"viability, T/C",[27],52.2%
same,"viability, T/C",[28],38.8%
same,"viability, T/C",[9],38.5%
same,"viability, T/C",[29],41.3%
same,"viability, T/C",[10],41.3%
same,"viability, T/C",[30],41.8%
same,"viability, T/C",[31],51%
same,"viability, T/C",[32],27.4%
same,"viability, T/C",[11],44.9%
same,"viability, T/C",[33],40.2%
same,"viability, T/C",[12],46.6%
same,"viability, T/C",[34],50.5%
same,"viability, T/C",[35],36.8%
same,"viability, T/C",[36],11.8%
COc1cccc2c1C(=O)c1c(O)c3c(c(O)c1C2=O)CC(O)(C(=O)CO)CC3OC1CC(N)C(O)C(C)O1 (stereo unspecified) + CN(C)c1ccc(Nc2c3ccc(NC(=O)CCN4CCCC4)cc3nc3cc(NC(=O)CCN4CCCC4)ccc23)cc1,IC50,second compound 0.0316 µM,1660 nM
same,IC50,second compound 0.1 µM,2790 nM
same,IC50,second compound 0.316 µM,4110 nM
same,IC50,second compound 1 µM,5550 nM
same,IC50,second compound 3.16 µM,5920 nM
same,IC50,second compound 10 µM,6470 nM
same,"viability, T/C",[1],91.1%
same,"viability, T/C",[13],98%
same,"viability, T/C",[2],108%
same,"viability, T/C",[14],61.5%
same,"viability, T/C",[15],45.6%
same,"viability, T/C",[16],25.1%
same,"viability, T/C",[3],103%
same,"viability, T/C",[17],85.5%
same,"viability, T/C",[4],90.6%
same,"viability, T/C",[18],87.8%
same,"viability, T/C",[19],45.4%
same,"viability, T/C",[20],34.1%
same,"viability, T/C",[5],94%
same,"viability, T/C",[21],94.8%
same,"viability, T/C",[6],67.3%
same,"viability, T/C",[22],78.5%
same,"viability, T/C",[23],55.7%
same,"viability, T/C",[24],31.9%
same,"viability, T/C",[7],92.4%
same,"viability, T/C",[25],85.6%
same,"viability, T/C",[8],76.3%
same,"viability, T/C",[26],73.9%
same,"viability, T/C",[27],78.7%
same,"viability, T/C",[28],20.8%
same,"viability, T/C",[9],103%
same,"viability, T/C",[29],98.4%
same,"viability, T/C",[10],104%
same,"viability, T/C",[30],86.5%
same,"viability, T/C",[31],81%
same,"viability, T/C",[32],26.4%
same,"viability, T/C",[11],112%
same,"viability, T/C",[33],120%
same,"viability, T/C",[12],93.4%
same,"viability, T/C",[34],97.6%
same,"viability, T/C",[35],80%
same,"viability, T/C",[36],32.6%
